According to US4455290A, “Inhibition of fibrin polymerization by a peptide isolated from fibrin Fragment D1” (Research Corporation, priority 1981, dated 1984):
Peptide text beside a SMILES is read from it.

What was measured:
thrombin time = experiment: Thrombin time test; settings: stated as 'could be caused'; no experiment described
[1] = molecular target: T1, thrombin-treated NH2-terminal disulfide knot (NDSK) (Homo sapiens, UniProt P02671+P02675+P02679); experiment: Equilibrium binding of 125-I D1 Peptide (equilibrium dialysis / Sephadex gel equilibrium), thrombin-treated NDSK
T1 sequence (P02671 36-70 limits assumed): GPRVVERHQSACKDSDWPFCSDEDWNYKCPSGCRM
T1 sequence (P02675 45-148 limits assumed): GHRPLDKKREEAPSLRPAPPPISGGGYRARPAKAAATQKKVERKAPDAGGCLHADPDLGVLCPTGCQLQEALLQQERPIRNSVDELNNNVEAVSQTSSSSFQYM
T1 sequence (P02679 27-453): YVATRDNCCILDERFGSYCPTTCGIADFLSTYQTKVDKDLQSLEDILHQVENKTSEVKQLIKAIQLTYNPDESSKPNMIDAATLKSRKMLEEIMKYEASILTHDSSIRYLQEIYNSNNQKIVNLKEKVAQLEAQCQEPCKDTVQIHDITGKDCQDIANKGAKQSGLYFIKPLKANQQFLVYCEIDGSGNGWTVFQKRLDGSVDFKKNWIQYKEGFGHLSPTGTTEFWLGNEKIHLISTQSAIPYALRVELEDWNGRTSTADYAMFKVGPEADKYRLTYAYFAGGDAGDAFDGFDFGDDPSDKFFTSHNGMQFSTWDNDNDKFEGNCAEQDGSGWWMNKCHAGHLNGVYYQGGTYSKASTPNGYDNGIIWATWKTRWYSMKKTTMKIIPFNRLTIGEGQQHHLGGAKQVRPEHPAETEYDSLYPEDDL

## CC[C@H](C)[C@H](NC(=O)[C@H](CCCCN)NC(=O)[C@H](CCSC)NC(=O)[C@@H](NC(=O)[C@@H](NC(=O)[C@H](CCCCN)NC(=O)[C@H](CCCCN)NC(=O)[C@H](CCSC)NC(=O)[C@H](CO)NC(=O)[C@H](Cc1ccc(O)cc1)NC(=O)[C@H](Cc1c[nH]c2ccccc12)NC(=O)[C@H](CCCNC(=N)N)NC(=O)[C@@H](N)[C@@H](C)O)[C@@H](C)O)[C@@H](C)O)C(=O)N[C@H](C(=O)N1CCC[C@H]1C(=O)N[C@@H](Cc1ccccc1)C(=O)N[C@@H](CC(N)=O)C(=O)N[C@@H](CCCNC(=N)N)C(=O)N[C@@H](CC(C)C)C(=O)N[C@H](C(=O)N[C@H](C(=O)NCC(=O)N[C@@H](CCC(=O)O)C(=O)NCC(=O)N[C@@H](CCC(N)=O)C(=O)N[C@@H](CCC(N)=O)C(=O)N[C@@H](Cc1c[nH]cn1)C(=O)N[C@@H](Cc1c[nH]cn1)C(=O)N[C@@H](CC(C)C)C(=O)NCC(=O)NCC(=O)N[C@@H](C)C(=O)N[C@@H](CCCCN)C(=O)N[C@@H](CCC(N)=O)C(=O)N[C@@H](C)C(=O)NCC(=O)N[C@@H](CC(=O)O)C(=O)N[C@H](C(=O)O)C(C)C)[C@@H](C)CC)[C@@H](C)O)[C@@H](C)CC [D1 Peptide] (H-TRWYSMKKTTMKIIPFNRLTIGEGQQHHLGGAKQAGDV-OH)
Thrombin time
  blood concentration causing a 50% increase in thrombin time: about 4.4×10^-6 M
[1]; Scatchard analysis (FIG. 6)
  number of binding sites on thrombin-treated NDSK: approximately 2.1
[1]; plot of 1/free ligand vs. total NDSK/bound protein
  n (number of binding sites): 2.2
